Calls of active or inactive are those of the source. How the calls were made is not given here.
Test system: CCRIS mutagenicity, Ames/micronucleus/aberration tests
Assay: CCRIS mutagenicity studies
[1] = Test System: AMES SALMONELLA TYPHIMURIUM, Strain/Indicator: TA97, Metabolic Activation: NONE, Method: PREINCUBATION
[2] = Test System: AMES SALMONELLA TYPHIMURIUM, Strain/Indicator: TA98, Metabolic Activation: NONE, Method: PREINCUBATION
[3] = Test System: AMES SALMONELLA TYPHIMURIUM, Strain/Indicator: TA100, Metabolic Activation: NONE, Method: PREINCUBATION
[4] = Test System: AMES SALMONELLA TYPHIMURIUM, Strain/Indicator: TA1535, Metabolic Activation: NONE, Method: PREINCUBATION
[5] = Test System: AMES SALMONELLA TYPHIMURIUM, Strain/Indicator: TA100, Metabolic Activation: NONE, Method: STANDARD PLATE

Nc1ccccc1C(=O)OCCc1ccccc1
mutagenic call (Test System: AMES SALMONELLA TYPHIMURIUM, Strain/Indicator: TA97, Metabolic Activation: HAMSTER, LIVER, S-9, AROCLOR 1254 (10 OR 30%), Method: PREINCUBATION): inactive; negative
mutagenic call [1]: inactive; negative
mutagenic call (Test System: AMES SALMONELLA TYPHIMURIUM, Strain/Indicator: TA97, Metabolic Activation: RAT, LIVER, S-9, AROCLOR 1254 (10 OR 30%), Method: PREINCUBATION): inactive; negative
mutagenic call (Test System: AMES SALMONELLA TYPHIMURIUM, Strain/Indicator: TA98, Metabolic Activation: HAMSTER, LIVER, S-9, AROCLOR 1254 (10 OR 30%), Method: PREINCUBATION): inactive; negative
mutagenic call [2]: inactive; negative
mutagenic call (Test System: AMES SALMONELLA TYPHIMURIUM, Strain/Indicator: TA98, Metabolic Activation: RAT, LIVER, S-9, AROCLOR 1254 (10 OR 30%), Method: PREINCUBATION): inactive; negative
mutagenic call (Test System: AMES SALMONELLA TYPHIMURIUM, Strain/Indicator: TA100, Metabolic Activation: HAMSTER, LIVER, S-9, AROCLOR 1254 (10 OR 30%), Method: PREINCUBATION): inactive; negative
mutagenic call [3]: inactive; negative
mutagenic call (Test System: AMES SALMONELLA TYPHIMURIUM, Strain/Indicator: TA100, Metabolic Activation: RAT, LIVER, S-9, AROCLOR 1254 (10 OR 30%), Method: PREINCUBATION): inactive; negative
mutagenic call (Test System: AMES SALMONELLA TYPHIMURIUM, Strain/Indicator: TA1535, Metabolic Activation: HAMSTER, LIVER, S-9, AROCLOR 1254 (10 OR 30%), Method: PREINCUBATION): inactive; negative
mutagenic call [4]: inactive; negative
mutagenic call (Test System: AMES SALMONELLA TYPHIMURIUM, Strain/Indicator: TA1535, Metabolic Activation: RAT, LIVER, S-9, AROCLOR 1254 (10 OR 30%), Method: PREINCUBATION): inactive; negative

c1ccc2c(OC[C@@H]3CO3)cccc2c1
mutagenic call [5]: active; positive

CO[C@H](C(=O)[C@@H](O)[C@@H](C)O)[C@@H]1Cc2cc3cc(O[C@H]4C[C@@H](O[C@H]5C[C@@H](O)[C@H](O)[C@@H](C)O5)[C@H](O)[C@@H](C)O4)c(C)c(O)c3c(O)c2C(=O)[C@H]1O[C@H]1C[C@@H](O[C@H]2C[C@@H](O[C@H]3C[C@](C)(O)[C@H](O)[C@@H](C)O3)[C@@H](O)[C@@H](C)O2)[C@H](O)[C@@H](C)O1
mutagenic call (Test System: CHINESE HAMSTER OVARY, Strain/Indicator: CHO (HGPRT)/6-THIOGUANINE, Metabolic Activation: NONE, Method: PREINCUBATION): active; positive

CCCCOc1cc2c(c3ccc4ccccc4c13)CCC2=O
mutagenic call (Test System: AMES SALMONELLA TYPHIMURIUM, Strain/Indicator: TA100, Metabolic Activation: RAT, LIVER, S-9, AROCLOR 1254, Method: STANDARD PLATE): inactive; negative

Nc1ccc(NCCO)c([N+](=O)[O-])c1
mutagenic call (Test System: AMES SALMONELLA TYPHIMURIUM, Strain/Indicator: TA97, Metabolic Activation: HAMSTER, LIVER, S-9, AROCLOR 1254 (10%), Method: PREINCUBATION): active; positive
mutagenic call (Test System: AMES SALMONELLA TYPHIMURIUM, Strain/Indicator: TA97, Metabolic Activation: HAMSTER, LIVER, S-9, AROCLOR 1254, Method: PREINCUBATION): active; positive
mutagenic call [1]: active; positive
mutagenic call (Test System: AMES SALMONELLA TYPHIMURIUM, Strain/Indicator: TA97, Metabolic Activation: RAT, LIVER, S-9, AROCLOR 1254 (10%), Method: PREINCUBATION): active; positive
mutagenic call (Test System: AMES SALMONELLA TYPHIMURIUM, Strain/Indicator: TA97, Metabolic Activation: RAT, LIVER, S-9, AROCLOR 1254, Method: PREINCUBATION): active; positive
mutagenic call (Test System: AMES SALMONELLA TYPHIMURIUM, Strain/Indicator: TA98, Metabolic Activation: HAMSTER, LIVER, S-9, AROCLOR 1254 (10%), Method: PREINCUBATION): active; positive
mutagenic call (Test System: AMES SALMONELLA TYPHIMURIUM, Strain/Indicator: TA98, Metabolic Activation: HAMSTER, LIVER, S-9, AROCLOR 1254, Method: PREINCUBATION): active; positive
mutagenic call [2]: active; positive
mutagenic call (Test System: AMES SALMONELLA TYPHIMURIUM, Strain/Indicator: TA98, Metabolic Activation: RAT, LIVER, S-9, AROCLOR 1254 (10%), Method: PREINCUBATION): active; positive
mutagenic call (Test System: AMES SALMONELLA TYPHIMURIUM, Strain/Indicator: TA98, Metabolic Activation: RAT, LIVER, S-9, AROCLOR 1254, Method: PREINCUBATION): active; positive
mutagenic call (Test System: AMES SALMONELLA TYPHIMURIUM, Strain/Indicator: TA100, Metabolic Activation: HAMSTER, LIVER, S-9, AROCLOR 1254 (10%), Method: PREINCUBATION): active; positive
mutagenic call (Test System: AMES SALMONELLA TYPHIMURIUM, Strain/Indicator: TA100, Metabolic Activation: HAMSTER, LIVER, S-9, AROCLOR 1254, Method: PREINCUBATION): active; positive
mutagenic call [3]: active; positive
mutagenic call (Test System: AMES SALMONELLA TYPHIMURIUM, Strain/Indicator: TA100, Metabolic Activation: RAT, LIVER, S-9, AROCLOR 1254 (10%), Method: PREINCUBATION): active; positive
mutagenic call (Test System: AMES SALMONELLA TYPHIMURIUM, Strain/Indicator: TA100, Metabolic Activation: RAT, LIVER, S-9, AROCLOR 1254, Method: PREINCUBATION): active; positive
mutagenic call (Test System: AMES SALMONELLA TYPHIMURIUM, Strain/Indicator: TA1535, Metabolic Activation: HAMSTER, LIVER, S-9, AROCLOR 1254 (10%), Method: PREINCUBATION): inactive; negative
mutagenic call (Test System: AMES SALMONELLA TYPHIMURIUM, Strain/Indicator: TA1535, Metabolic Activation: HAMSTER, LIVER, S-9, AROCLOR 1254, Method: PREINCUBATION): inactive; negative
mutagenic call [4]: inactive; negative
mutagenic call (Test System: AMES SALMONELLA TYPHIMURIUM, Strain/Indicator: TA1535, Metabolic Activation: RAT, LIVER, S-9, AROCLOR 1254 (10%), Method: PREINCUBATION): inactive; negative
mutagenic call (Test System: AMES SALMONELLA TYPHIMURIUM, Strain/Indicator: TA1535, Metabolic Activation: RAT, LIVER, S-9, AROCLOR 1254, Method: PREINCUBATION): inactive; negative

N1=NC2[C@@H]3O[C@@H]3C1[C@H]1O[C@@H]21
mutagenic call (Test System: AMES SALMONELLA TYPHIMURIUM, Strain/Indicator: TA98, Metabolic Activation: NONE, Method: STANDARD PLATE): inactive; negative
mutagenic call (Test System: AMES SALMONELLA TYPHIMURIUM, Strain/Indicator: TA98, Metabolic Activation: RAT, LIVER, S-9, PHENOBARBITAL, Method: STANDARD PLATE): inactive; negative
mutagenic call [5]: inactive; negative
mutagenic call (Test System: AMES SALMONELLA TYPHIMURIUM, Strain/Indicator: TA100, Metabolic Activation: RAT, LIVER, S-9, PHENOBARBITAL, Method: STANDARD PLATE): inactive; negative
mutagenic call (Test System: AMES SALMONELLA TYPHIMURIUM, Strain/Indicator: TM677/8-AZAGUANINE, Metabolic Activation: NONE, Method: STANDARD PLATE): inactive; negative

Source: PubChem BioAssay AID1259407 (Chemical Carcinogenesis Research Information System (CCRIS), 2018)
